Data reported in patent US11540518B2, “Fungicidal oxadiazoles” (FMC Corporation, priority 2017, dated 2023).

Tests used:
Format in all cases: in vivo
[1] = system: Puccinia recondita f. sp. tritici; test: Test C: wheat leaf rust control on wheat seedlings; details: sprayed to run-off on wheat seedlings, inoculated the following day, 100 = 100% disease control, 0 = no control
From the text: General protocol for preparing test suspensions for Tests A-C: the test compounds were first dissolved in acetone in an amount equal to 3% of the final volume and then suspended at the desired concentration (in ppm) in acetone and purified water (50/50 mix by volume) containing 250 ppm of the surfactant PEG400 (polyhydric alcohol esters). The resulting test suspensions were then used in Tests A-C. The test solution was sprayed to the point of run-off on wheat seedlings. The following day the seedlings were inoculated with a spore suspension of Puccinia recondita f. sp. tritici (the causal agent of wheat leaf rust) and incubated in a saturated atmosphere at 20° C. for 24 h, and then moved to a growth chamber at 20° C. for 6 days, after which time disease ratings were made. Results for Tests A-C are given in Table A. In the Table, a rating of 100 indicates 100% disease control and a rating of 0 indicates no disease control (relative to the controls). A dash (-) indicates the compound was not tested.

[2] = system: Zymoseptoria tritici; test: Test B: wheat leaf blotch control on wheat seedlings; details: 260 ppm, sprayed to run-off on wheat seedlings, inoculated the following day; 100 = 100% disease control, 0 = no control
From the text: General protocol for preparing test suspensions for Tests A-C: the test compounds were first dissolved in acetone in an amount equal to 3% of the final volume and then suspended at the desired concentration (in ppm) in acetone and purified water (50/50 mix by volume) containing 250 ppm of the surfactant PEG400 (polyhydric alcohol esters). The resulting test suspensions were then used in Tests A-C. The test solution was sprayed to the point of run-off on wheat seedlings. The following day the seedlings were inoculated with a spore suspension of Zymoseptoria tritici (the causal agent of wheat leaf blotch) and incubated in a saturated atmosphere at 24° C. for 48 h, and then moved to a growth chamber at 20° C. for 17 days, after which time disease ratings were made. Results for Tests A-C are given in Table A. In the Table, a rating of 100 indicates 100% disease control and a rating of 0 indicates no disease control (relative to the controls). A dash (-) indicates the compound was not tested.

[3] = system: Phakopsora pachyrhizi; test: Test A: Asian soybean rust control on soybean seedlings; details: sprayed to run-off on soybean seedlings, inoculated the following day, 100 = 100% disease control, 0 = no control
From the text: General protocol for preparing test suspensions for Tests A-C: the test compounds were first dissolved in acetone in an amount equal to 3% of the final volume and then suspended at the desired concentration (in ppm) in acetone and purified water (50/50 mix by volume) containing 250 ppm of the surfactant PEG400 (polyhydric alcohol esters). The resulting test suspensions were then used in Tests A-C.
The test solution was sprayed to the point of run-off on soybean seedlings. The following day the seedlings were inoculated with a spore suspension of Phakopsora pachyrhizi (the causal agent of Asian soybean rust) and incubated in a saturated atmosphere at 22° C. for 24 h, and then moved to a growth chamber at 22° C. for 8 days, after which time visual disease ratings were made.
Results for Tests A-C are given in Table A. In the Table, a rating of 100 indicates 100% disease control and a rating of 0 indicates no disease control (relative to the controls). A dash (-) indicates the compound was not tested.

Structure (SMILES)	Test C disease control rating ([1]; 50 ppm) [%]	Test A disease control rating ([3]; 50 ppm) [%]	Test C disease control rating ([1]; 10 ppm) [%]	Test A disease control rating ([3]; 10 ppm) [%]	further results
CCNC(=O)OCC(OC)c1ccc(-c2noc(C(F)(F)F)n2)cc1 (racemic) [Compound 5]	–	–	–	–	Test C disease control rating ([1]; 260 ppm): 100%; Test B disease control rating [2]: 81%; Test A disease control rating ([3]; 260 ppm): 100%
COC(=O)c1ccc(NC(=O)OCCc2ccc(-c3noc(C(F)(F)F)n3)cc2)cc1 [Compound 49]	0	96	–	–	–
COC(=O)c1ccc(NC(=O)OCCCc2ccc(-c3noc(C(F)(F)F)n3)cc2)cc1 [Compound 50]	0	0	–	–	–
C=CCNC(=O)OCc1ccc(-c2noc(C(F)(F)F)n2)cc1 [Compound 51]	–	–	99	100	–
CCN(C)C(=O)OCc1ccc(-c2noc(C(F)(F)F)n2)cc1 [Compound 52]	–	–	68	100	–
CCN(CC)C(=O)OCc1ccc(-c2noc(C(F)(F)F)n2)cc1 [Compound 53]	–	–	68	100	–
O=C(NC1CC1)OCc1ccc(-c2noc(C(F)(F)F)n2)cc1 [Compound 54]	–	–	92	100	–
N#CCNC(=O)OCc1ccc(-c2noc(C(F)(F)F)n2)cc1 [Compound 55]	–	–	86	100	–
CCOC(=O)c1ccc(NC(=O)OCc2ccc(-c3noc(C(F)(F)F)n3)cc2)cc1 [Compound 57]	–	–	0	100	–
CCOC(=O)c1ccc(NC(=O)OC(C)c2ccc(-c3noc(C(F)(F)F)n3)cc2)cc1 (centres unmarked) [Compound 58]	79	100	–	–	–
CCOC(=O)c1ccc(NC(=O)OCCc2ccc(-c3noc(C(F)(F)F)n3)cc2)cc1 [Compound 59]	0	96	–	–	–
CCOC(=O)c1ccc(NC(=O)OCCCc2ccc(-c3noc(C(F)(F)F)n3)cc2)cc1 [Compound 60]	0	0	–	–	–
C#CCNC(=O)OC(C)c1ccc(-c2noc(C(F)(F)F)n2)s1 (centres unmarked) [Compound 61]	–	–	100	100	–
CC#CCNC(=O)OC(C)c1ccc(-c2noc(C(F)(F)F)n2)cc1 (centres unmarked) [Compound 62]	100	100	–	–	–
CC#CCNC(=O)OCCc1ccc(-c2noc(C(F)(F)F)n2)cc1 [Compound 63]	100	100	–	–	–
CC#CCNC(=O)OCCCc1ccc(-c2noc(C(F)(F)F)n2)cc1 [Compound 64]	100	100	–	–	–
C#CCCNC(=O)OCCCc1ccc(-c2noc(C(F)(F)F)n2)cc1 [Compound 65]	100	100	–	–	–
C#CCCNC(=O)OCCc1ccc(-c2noc(C(F)(F)F)n2)cc1 [Compound 66]	100	100	–	–	–
C#CCCNC(=O)OC(C)c1ccc(-c2noc(C(F)(F)F)n2)cc1 (centres unmarked) [Compound 67]	100	100	–	–	–
CCOC(=O)c1ccc(CNC(=O)OCCc2ccc(-c3noc(C(F)(F)F)n3)cc2)cc1 [Compound 68]	0	99	–	–	–
CCOC(=O)c1ccc(CNC(=O)OCCCc2ccc(-c3noc(C(F)(F)F)n3)cc2)cc1 [Compound 69]	0	100	–	–	–
CC(OC(=O)n1ccnc1)c1ccc(-c2noc(C(F)(F)F)n2)cc1 (centres unmarked) [Compound 70]	–	–	68	99	–

Structure (SMILES)	Test C disease control rating ([1]; 50 ppm) [%]	Test A disease control rating ([3]; 50 ppm) [%]	Test C disease control rating ([1]; 10 ppm) [%]	Test A disease control rating ([3]; 10 ppm) [%]	further results
CNC(=O)OC(C)c1ccc(-c2noc(C(F)(F)F)n2)cc1 (centres unmarked) [Compound 71]	–	–	83	100	–
CCCNC(=O)OC(C)c1ccc(-c2noc(C(F)(F)F)n2)cc1 (centres unmarked) [Compound 73]	–	–	68	100	–
CCCNC(=O)OC(C)c1ccc(-c2noc(C(F)(F)F)n2)s1 (centres unmarked) [Compound 74]	–	–	98	100	–
NC(=O)OCc1ccc(-c2noc(C(F)(F)F)n2)o1 [Compound 80]	–	–	0	0	–
C#CCNC(=O)OCc1ccc(-c2noc(C(F)(F)F)n2)o1 [Compound 81]	–	–	45	0	–
O=C(OCc1ccc(-c2noc(C(F)(F)F)n2)o1)n1ccnc1 [Compound 82]	–	–	–	–	pest or weed control at 50 ppm ([1]; Puccinia recondita, 168 h, 50 ppm, read-out: Test C disease control rating): 0%; pest or weed control at 50 ppm ([3]; Phakopsora pachyrhizi, 216 h, 50 ppm, read-out: Test A disease control rating): 89%
COc1ccc(C(OC(=O)n2ccnc2)c2ccc(-c3noc(C(F)(F)F)n3)cc2)cc1 (centres unmarked) [Compound 83]	100	100	–	–	–
CC(OC(N)=O)c1ccc(-c2noc(C(F)(F)F)n2)cc1 (centres unmarked) [Compound 84]	–	–	100	100	–
CC(C)(C)OC(=O)NN=Cc1ccc(-c2noc(C(F)(F)F)n2)cc1 [Compound 106]	–	–	68	97	–
CCOC(=O)NN=Cc1ccc(-c2noc(C(F)(F)F)n2)cc1 [Compound 107]	–	–	99	100	–
COC(=O)NN=C(C)c1ccc(-c2noc(C(F)(F)F)n2)cc1 [Compound 108]	–	–	89	92	–
CN(N=Cc1ccc(-c2noc(C(F)(F)F)n2)cc1)C(=O)OC(C)(C)C [Compound 109]	95	100	–	–	–
CCNC(=O)OC(c1ccccc1)c1ccc(-c2noc(C(F)(F)F)n2)cc1 (centres unmarked) [Compound 110]	–	–	–	–	Test C disease control rating ([1]; 250 ppm): 100%; Test A disease control rating ([3]; 250 ppm): 100%
O=C(OC(c1ccccc1)c1ccc(-c2noc(C(F)(F)F)n2)cc1)n1ccnc1 (centres unmarked) [Compound 111]	–	–	–	–	Test C disease control rating ([1]; 250 ppm): 100%; Test A disease control rating ([3]; 250 ppm): 100%
NC(=O)OC(c1ccccc1)c1ccc(-c2noc(C(F)(F)F)n2)cc1 (centres unmarked) [Compound 117]	–	–	–	–	Test C disease control rating ([1]; 250 ppm): 100%; Test A disease control rating ([3]; 250 ppm): 100%
C#CCNC(=O)OC(c1ccccc1)c1ccc(-c2noc(C(F)(F)F)n2)cc1 (centres unmarked) [Compound 118]	–	–	–	–	Test C disease control rating ([1]; 250 ppm): 100%; Test A disease control rating ([3]; 250 ppm): 100%
COC(=O)c1ccc(CNC(=O)OC(c2ccccc2)c2ccc(-c3noc(C(F)(F)F)n3)cc2)cc1 (centres unmarked) [Compound 119]	–	–	–	–	Test C disease control rating ([1]; 250 ppm): 74%; Test A disease control rating ([3]; 250 ppm): 100%
C#CCCNC(=O)OC(c1ccccc1)c1ccc(-c2noc(C(F)(F)F)n2)cc1 (centres unmarked) [Compound 120]	–	–	–	–	Test C disease control rating ([1]; 250 ppm): 100%; Test A disease control rating ([3]; 250 ppm): 100%
CN(C)C(=O)OC(c1ccccc1)c1ccc(-c2noc(C(F)(F)F)n2)cc1 (centres unmarked) [Compound 121]	–	–	–	–	Test C disease control rating ([1]; 250 ppm): 99%; Test A disease control rating ([3]; 250 ppm): 100%
COCCNC(=O)OC(c1ccccc1)c1ccc(-c2noc(C(F)(F)F)n2)cc1 (centres unmarked) [Compound 122]	–	–	89	100	–
CONC(=O)OCc1ccc(-c2noc(C(F)(F)F)n2)cc1 [Compound 136]	–	–	0	79	–
Cc1ccccc1C(OC(=O)n1ccnc1)c1ccc(-c2noc(C(F)(F)F)n2)cc1 (centres unmarked) [Compound 142]	–	–	0	98	–
